“And” between values parts separate entries of the source, which are not always exact repeats. Equal entries are not always repeated. Marks after values point to notes of the source that are not given here.
Key:
[1] = system: Male beagle dogs; assay: Body or fecal weights, stool consistency, general animal health of treated beagle dogs; type: in vivo; details: any of the groups
Description: (§1) Male beagle dogs (9-10 kg) obtained from Marshall farms were fed a normal chow diet once a day for a two hour interval and given water ad libitum. Prior to initiating treatment, the dogs were weighed and blood samples were drawn from the cephalic vein of each dog following an overnight fast to evaluate pretreatment serum total cholesterol levels at the start of the study. […] All doses were administered in gelatin capsules per os to each dog between 9:00-9:30 a.m. prior to feeding. All animals were fed between 9:30-10:00 a.m. and were allowed two hours to eat, at which time any remaining food was removed. […] Animals were dosed daily for three weeks and blood samples were taken at the end of each week after an overnight fast for comparison with pretreatment serum total cholesterol levels. Three consecutive 24 hour fecal samples were collected for each group during the last 72 hours of each week and used to measure the concentration of fecal biles acids excreted during that time period.
Following this initial four week dose-ranging study, dogs from the two groups receiving 10 mg/kg/day pravastatin (a.m. and p.m. dosing groups) were randomized into two new treatment groups based on serum total cholesterol levels to initiate the combination treatment study. […] Dosing continued in this manner for an additional four weeks (Weeks 5-8) with blood and 48-hour fecal samples collected at the end of each week for serum lipid measurements and fecal bile acid determinations, respectively. […] At the end of this three-week period, pravastatin dosing and all empty capsule dosing were discontinued and blood samples were collected weekly for a final three weeks (weeks 12-14) to monitor the return of serum total cholesterol levels back to baseline.
Male beagle dogs (9-10 kg) obtained from Marshall farms were fed once a day for two hours and given water ad libitum.

[2] = system: Male beagle dogs; assay: Serum total cholesterol in beagle dogs (serum lipid measurements); type: in vivo; details: for SERUM TOTAL CHOLESTEROL / TOTAL SERUM CHOLESTEROL: n = 6; for decrease in serum total cholesterol concentration: compared to vehicle
Description: as §1
Blood was collected from the cephalic vein of each dog into serum separator tubes. The blood was centrifuged at 900×g for 20 minutes at room temperature and the serum decanted. All analyses were performed on a Cobas Mira Clinical Analyzer System (Roche Diagnostic Systems, Branchburg, N.J.) using Roche Diagnostic reagents for enzymatic determinations of serum cholesterol. Commercial calibrator and quality control materials were analyzed with each run to verify assay accuracy and precision. A two-tailed, paired Students t-test was used to determine the statistical significance of changes in serum total cholesterol in treated dogs compared to pretreatment values. A one-way analysis of variance (“ANOVA”) was used to compare each pair of treatment groups to determine the statistical significance of changes in serum total cholesterol.
Beagle dogs also were administered pravastatin to evaluate the monotherapeutic effect of pravastatin on serum total cholesterol.
Male beagle dogs (9-10 kg) obtained from Marshall farms were fed once a day for two hours and given water ad libitum. Prior to initiating treatment, blood samples were drawn from the cephalic vein of each dog to evaluate pretreatment total serum cholesterol levels at the start of the study.
For the dose ranging study, the dogs were assigned to one of five groups based on mean body weights and serum total cholesterol levels. Each group received one of the following dosages: (1) vehicle (empty capsule, afternoon dosing), (2) 3.0 mg/kg/day pravastatin (afternoon dosing), (3) 10 mg/kg/day pravastatin (afternoon dosing), (4) 30 mg/kg/day pravastatin (afternoon dosing), and (5) 10 mg/kg/day pravastatin (morning dosing). One capsule containing pravastatin was administered per os to each dog between 9:00-9:30 a.m. prior to feeding for the 10 mg/kg/day morning dosing group and between 2:30-3:00 p.m. for the afternoon dosing groups. All animals were fed between 9:30-10:00 a.m. and were allowed two hours to eat, at which time any remaining food was removed. […] Animals were dosed daily for four weeks and blood samples were taken at the end of each week after an overnight fast for comparison with pretreatment serum total cholesterol levels.
Following this initial four week dose-ranging study, dogs from the two groups receiving 10 mg/kg/day pravastatin (a.m. and p.m. dosing groups) were randomized into two new treatment groups based on serum total cholesterol levels to initiate the combination treatment study. […] Dosing continued in this manner for an additional four weeks (Weeks 5-8) with blood and 48-hour fecal samples collected at the end of each week for serum lipid measurements and fecal bile acid determinations, respectively.

Question: Which “changes in body or fecal weights, stool consistency or general animal health” value ([1]; Example 1, compound A-5 0.22-6.0 mg/kg/day for three weeks) does the source give for CCCCC1(CC)CS(=O)(=O)c2ccc(N(C)C)cc2[C@@H](c2cccc(OCc3ccc(C[N+]45CCN(CC4)CC5)cc3)c2)[C@H]1O.[Cl-] (some centres unmarked) [Compound A-5] here?
Answer: no significant changes

Question: What about the “changes in body or fecal weights, stool consistency or general animal health” value ([1]; Example 3 study (pravastatin 3-30 mg/kg/day, compound A-5 4.0 mg/kg/day, combination)) of the same compound?
Answer: no significant changes

Question: And the “% change in serum total cholesterol compared to the pretreatment value of each group” value (“% change in serum total cholesterol” below) ([2]; compound A-5 0.22 mg/kg/day per os, Week 1)?
Answer: (−9) %

Question: And the “SERUM TOTAL CHOLESTEROL” value ([2]; compound A-5 0.22 mg/kg/day per os, Week 1, mean ± SEM)?
Answer: 140 ± 10^3 mg/dL

Question: And the “% change in serum total cholesterol” value ([2]; compound A-5 0.22 mg/kg/day per os, Week 2)?
Answer: (−7) %

Question: What about the “SERUM TOTAL CHOLESTEROL” value ([2]; compound A-5 0.22 mg/kg/day per os, Week 2, mean ± SEM) of the same compound?
Answer: 143 ± 11 mg/dL

Question: And the “% change in serum total cholesterol” value ([2]; compound A-5 0.22 mg/kg/day per os, Week 3)?
Answer: (−10) %

Question: What about the “SERUM TOTAL CHOLESTEROL” value ([2]; compound A-5 0.22 mg/kg/day per os, Week 3, mean ± SEM) of the same compound?
Answer: 138 ± 11^3 mg/dL

Question: And the “decrease in serum total cholesterol concentration” value ([2]; compound A-5 0.22 mg/kg/day, one week of treatment)?
Answer: 9%

Question: What about the “decrease in serum total cholesterol concentration” value ([2]; compound A-5 0.22 mg/kg/day, three weeks of treatment) of the same compound?
Answer: 10%

Question: And the “% change in serum total cholesterol” value ([2]; compound A-5 0.66 mg/kg/day per os, Week 1)?
Answer: (−7) %

Question: And the “SERUM TOTAL CHOLESTEROL” value ([2]; compound A-5 0.66 mg/kg/day per os, Week 1, mean ± SEM)?
Answer: 145 ± 9 mg/dL

Question: And the “% change in serum total cholesterol” value ([2]; compound A-5 0.66 mg/kg/day per os, Week 2)?
Answer: (−4) %

Question: And the “SERUM TOTAL CHOLESTEROL” value ([2]; compound A-5 0.66 mg/kg/day per os, Week 2, mean ± SEM)?
Answer: 149 ± 8 mg/dL

Question: What about the “% change in serum total cholesterol” value ([2]; compound A-5 0.66 mg/kg/day per os, Week 3) of the same compound?
Answer: (−6) %

Question: And the “SERUM TOTAL CHOLESTEROL” value ([2]; compound A-5 0.66 mg/kg/day per os, Week 3, mean ± SEM)?
Answer: 146 ± 8 mg/dL

Question: What about the “decrease in serum total cholesterol concentration” value ([2]; compound A-5 0.66 mg/kg/day, one week of treatment) of the same compound?
Answer: 7%

Question: And the “decrease in serum total cholesterol concentration” value ([2]; compound A-5 0.66 mg/kg/day, three weeks of treatment)?
Answer: 6%

Question: And the “% change in serum total cholesterol” value ([2]; compound A-5 2.0 mg/kg/day per os, Week 1)?
Answer: (−12) %

Question: And the “SERUM TOTAL CHOLESTEROL” value ([2]; compound A-5 2.0 mg/kg/day per os, Week 1, mean ± SEM)?
Answer: 137 ± 10^3 mg/dL

Question: What about the “% change in serum total cholesterol” value ([2]; compound A-5 2.0 mg/kg/day per os, Week 2) of the same compound?
Answer: (−15) %

Question: What about the “SERUM TOTAL CHOLESTEROL” value ([2]; compound A-5 2.0 mg/kg/day per os, Week 2, mean ± SEM) of the same compound?
Answer: 133 ± 11^3 mg/dL

Question: And the “% change in serum total cholesterol” value ([2]; compound A-5 2.0 mg/kg/day per os, Week 3)?
Answer: (−13) %

Question: What about the “SERUM TOTAL CHOLESTEROL” value ([2]; compound A-5 2.0 mg/kg/day per os, Week 3, mean ± SEM) of the same compound?
Answer: 136 ± 10^3 mg/dL

Question: What about the “decrease in serum total cholesterol concentration” value ([2]; compound A-5 2.0 mg/kg/day, one week of treatment) of the same compound?
Answer: 12%

Question: And the “decrease in serum total cholesterol concentration” value ([2]; compound A-5 2.0 mg/kg/day, three weeks of treatment)?
Answer: 13%

Question: What about the “decrease in serum total cholesterol compared to the initial value at Week 0” value ([2]; compound A-5 4 mg/kg/day for four weeks (beginning after Week 4), Week 8) of the same compound?
Answer: 23%

Question: What about the “% change in serum total cholesterol” value ([2]; compound A-5 6.0 mg/kg/day per os, Week 1) of the same compound?
Answer: (−19) %

Question: And the “SERUM TOTAL CHOLESTEROL” value ([2]; compound A-5 6.0 mg/kg/day per os, Week 1, mean ± SEM)?
Answer: 128 ± 11^3 mg/dL

Question: What about the “% change in serum total cholesterol” value ([2]; compound A-5 6.0 mg/kg/day per os, Week 2) of the same compound?
Answer: (−22) %

Question: What about the “SERUM TOTAL CHOLESTEROL” value ([2]; compound A-5 6.0 mg/kg/day per os, Week 2, mean ± SEM) of the same compound?
Answer: 124 ± 11^3 mg/dL

Question: What about the “% change in serum total cholesterol” value ([2]; compound A-5 6.0 mg/kg/day per os, Week 3) of the same compound?
Answer: (−24) %

Question: What about the “SERUM TOTAL CHOLESTEROL” value ([2]; compound A-5 6.0 mg/kg/day per os, Week 3, mean ± SEM) of the same compound?
Answer: 120 ± 11^3 mg/dL

Question: What about the “decrease in serum total cholesterol concentration” value ([2]; compound A-5 6.0 mg/kg/day, one week of treatment) of the same compound?
Answer: 19%

Question: And the “decrease in serum total cholesterol concentration” value ([2]; compound A-5 6.0 mg/kg/day, three weeks of treatment)?
Answer: 24%

Question: And the “% change from Week 0 in total serum cholesterol” value ([2]; compound A-5 monotherapy 4.0 mg/kg/day, dosed Weeks 5-8, Week 5)?
Answer: (−12) %

Question: What about the “TOTAL SERUM CHOLESTEROL” value ([2]; compound A-5 monotherapy 4.0 mg/kg/day, dosed Weeks 5-8, Week 5, mean ± SEM) of the same compound?
Answer: 123 ± 9 mg/dL

Question: And the “% change from Week 0 in total serum cholesterol” value ([2]; compound A-5 monotherapy 4.0 mg/kg/day, dosed Weeks 5-8, Week 6)?
Answer: (−18) %

Question: What about the “TOTAL SERUM CHOLESTEROL” value ([2]; compound A-5 monotherapy 4.0 mg/kg/day, dosed Weeks 5-8, Week 6, mean ± SEM) of the same compound?
Answer: 115 ± 8 [a] mg/dL

Question: And the “% change from Week 0 in total serum cholesterol” value ([2]; compound A-5 monotherapy 4.0 mg/kg/day, dosed Weeks 5-8, Week 7)?
Answer: (−18) %

Question: What about the “TOTAL SERUM CHOLESTEROL” value ([2]; compound A-5 monotherapy 4.0 mg/kg/day, dosed Weeks 5-8, Week 7, mean ± SEM) of the same compound?
Answer: 114 ± 6 [a] mg/dL

Question: And the “% change from Week 0 in total serum cholesterol” value ([2]; compound A-5 monotherapy 4.0 mg/kg/day, dosed Weeks 5-8, Week 8)?
Answer: (−23) %

Question: What about the “TOTAL SERUM CHOLESTEROL” value ([2]; compound A-5 monotherapy 4.0 mg/kg/day, dosed Weeks 5-8, Week 8, mean ± SEM) of the same compound?
Answer: 107 ±7 mg/dL and 107 ± 7 [a] mg/dL

Question: And the “% change from Week 0 in total serum cholesterol” value ([2]; compound A-5 monotherapy group, dosing terminated after Week 8, Week 9)?
Answer: (−5) %

Question: And the “TOTAL SERUM CHOLESTEROL” value ([2]; compound A-5 monotherapy group, dosing terminated after Week 8, Week 9, mean ± SEM)?
Answer: 132 ± 7 mg/dL

Question: What about the “% change from Week 0 in total serum cholesterol” value ([2]; compound A-5 monotherapy group, dosing terminated after Week 8, Week 10) of the same compound?
Answer: (−4) %

Question: And the “TOTAL SERUM CHOLESTEROL” value ([2]; compound A-5 monotherapy group, dosing terminated after Week 8, Week 10, mean ± SEM)?
Answer: 133 ± 10 mg/dL

Question: And the “% change from Week 0 in total serum cholesterol” value ([2]; compound A-5 monotherapy group, dosing terminated after Week 8, Week 11)?
Answer: (−5) %

Question: What about the “TOTAL SERUM CHOLESTEROL” value ([2]; compound A-5 monotherapy group, dosing terminated after Week 8, Week 11, mean ± SEM) of the same compound?
Answer: 132 ± 9 mg/dL

Question: What about the “% change from Week 0 in total serum cholesterol” value ([2]; compound A-5 monotherapy group, dosing terminated after Week 8, Week 12) of the same compound?
Answer: (−2) %

Question: And the “TOTAL SERUM CHOLESTEROL” value ([2]; compound A-5 monotherapy group, dosing terminated after Week 8, Week 12, mean ± SEM)?
Answer: 136 ± 9 mg/dL

Question: What about the “% change from Week 0 in total serum cholesterol” value ([2]; compound A-5 monotherapy group, dosing terminated after Week 8, Week 13) of the same compound?
Answer: (−14) %

Question: What about the “TOTAL SERUM CHOLESTEROL” value ([2]; compound A-5 monotherapy group, dosing terminated after Week 8, Week 13, mean ± SEM) of the same compound?
Answer: 137 ± 9 mg/dL
